Reference: patent publication US20240050524A1, “DELIVERY OF ABETA VARIANTS FOR AGGREGATION INHIBITION” (Baylor College of Medicine, priority 2020, published 2024)
Entries after “also recorded” stand apart in the source; their conditions may differ.

Tested on: γ-secretase
Assay: Dependence of Aβ release from transfected N2a cells on γ-secretase activity (IP/immunoblot of conditioned media)
Assay type: cell-based, murine
Details: 'KK' minimal construct; 0.1 or 1 nM
Procedure: Collection of Aβ peptides from N2a conditioned media. N2a cells were grown in 6 well plates using Dulbecco's modified Eagle's medium (DMEM) (#12-604F, VWR) supplemented with […] penicillin/streptomycin and 10% fetal bovine serum until approximately 90% confluent. […] Twenty-four hours later, cells were washed with 1×Dulbecco's PBS, and a serum-reduced medium consisting of DMEM and 0.2% fetal bovine serum was added before the cells were returned to 5% CO2 at 37° C. Conditioned media was harvested 24 hr later and centrifuged at 10,000 rpm for 5 min at 4° C. (2 ml/well×3 wells per IP reaction). To test the dependence of Aβ release on γ-secretase activity, cells were transfected as above, with the subsequent media replacement including 0.1 or 1 nM of LY411575 (#SML0506, Sigma). Supernatants were collected and supplemented with protease inhibitors (#5892970001, Sigma) and 0.01% NaN3 (#S2002, Sigma) to prevent proteolytic degradation.
Aβ IP from conditioned media for immunoblot. Protein G Dynabeads (50 μl, #10003D, Fisher) were loaded with mouse anti-Aβ antibody 6E10 (1 ug, #SIG-39320, BioLegend, San Diego, CA) for 1 hr at RT. […] Antibody binding was detected using […] secondary antibody conjugated with IRDye, diluted 1:20,000 in block (#26-32210, LI-COR, Lincoln, NE). Blots were imaged with an Odyssey Fc Imager and analyzed with Image Studio software (LI-COR).

## C[C@H](NC(=O)[C@@H](O)c1cc(F)cc(F)c1)C(=O)N[C@@H]1C(=O)N(C)c2ccccc2-c2ccccc21 [LY411575]
  block of Aβ secretion into the media: blocked release of variant Aβ into the media in a concentration-dependent manner; also recorded: blocked in a dose-dependent manner
